# Laboratory results published in patent US20140128399A1, “METHODS AND COMPOSITIONS FOR TREATING URINARY TRACT INFECTIONS USING AGENTS THAT MIMIC OR ELEVATE CYCLIC AMP” (DUKE UNIVERSITY, priority 2007, published 2014).
# System: E. coli-infected human bladder epithelial cells (BECs)
# Assay: Intracellular bacterial levels in BECs
# Assay type: cell-based
# Conditions: single agent, presented as % of control in figures
# Description: Intracellular bacterial levels in BECs were measured in untreated BECs and in BECs treated with forskolin, various PDE inhibitors, and a combination of forskolin with a PDE inhibitor. Several PDE inhibitors were used, including both broadly active PDE inhibitors that block PDEs in a non-specific manner as well as specific PDE inhibitors that block only certain PDEs.
compound,measurement,value
"CCCCCCCCCCCCCC(=O)O[C@@H]1[C@@H](C)[C@@]2(O)[C@@H](C=C(CO)C[C@]3(O)C(=O)C(C)=C[C@@H]23)[C@@H]2C(C)(C)[C@]12OC(C)=O [PMA, phorbol myristate acetate]",bacterial loads / intracellular bacterial numbers in BECs,significantly reduced
